Experimental data as given in ChEMBL document CHEMBL1201862, “PubChem BioAssay data set” (2004).
Active and inactive are the calls of the source.

Columns and labels:
[1] = biological target: Nuclear receptor ROR-gamma (Homo sapiens, UniProt P51449); assay: LXR, FXR and VP16 reporter activity, cell-based, luciferase reporter, ROR modulator project, late-stage follow-up, panel member RORG (AID 2117)
[2] = biological target: Nuclear receptor ROR-alpha (Homo sapiens, UniProt P35398); assay: LXR, FXR and VP16 reporter activity, cell-based, luciferase reporter, ROR modulator project, late-stage follow-up, panel member RORA (AID 2117)
[3] = system: Streptococcus sp. 'group A'; assay: Streptococcus pyogenes SK(-)GAS viability under kanamycin – luminescence, BacTiterGlo, confirmation, counter-screen for streptokinase expression inhibitor project, dose response (AID 1900); type: functional, organism-based
[4] = NIH-3T3 fibroblast cytotoxicity, dose response, cytotoxicity control, cell-based, fluorescence, Alamar Blue, secondary assay (AID 2327); type: functional;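 further: NIH-3T3 mouse fibroblasts cultured with fluconazole at 8 µg/mL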
Streptococcus = assay: GAS UMAA2166 growth inhibition – luminescence, BacTiterGlo, counter-screen for streptokinase expression inhibitor project, dose response (AID 1915); type: functional, organism-based;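 further: potency for reduction of bacterial viability or growth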
[5] = mammalian cell viability loss – Alamar Blue, dry powder, cytotoxicity control for antifungal single agent project, dose response (AID 602188); type: functional, cell-based
[6] = fluconazole-exposed Candida albicans growth modulators – fluorescence, retest, confirmation (AID 2467); type: functional, cell-based
[7] = biological target: T1, Serine/threonine-protein phosphatase (Candida dubliniensis (strain CD36 / CBS 7987 / NCPF 3949 / NRRLY-17841) (Yeast), UniProt B9W6M3); assay: blockers of CaCl2-induced CDRE-lacZ signaling – S. cerevisiae, luminescence, secondary, dose response (AID 2388); type: functional, cell-based;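 further: yeast reporter cells carrying a calcineurin-responsive lacZ construct stimulated with calcium chloride; luminescent beta-galactosidase reporter signal in whole cells rather than isolated phosphatase activity; potency for inhibition where a drop in reporter signal means calcineurin blockade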
T1 sequence (B9W6M3 whole entry): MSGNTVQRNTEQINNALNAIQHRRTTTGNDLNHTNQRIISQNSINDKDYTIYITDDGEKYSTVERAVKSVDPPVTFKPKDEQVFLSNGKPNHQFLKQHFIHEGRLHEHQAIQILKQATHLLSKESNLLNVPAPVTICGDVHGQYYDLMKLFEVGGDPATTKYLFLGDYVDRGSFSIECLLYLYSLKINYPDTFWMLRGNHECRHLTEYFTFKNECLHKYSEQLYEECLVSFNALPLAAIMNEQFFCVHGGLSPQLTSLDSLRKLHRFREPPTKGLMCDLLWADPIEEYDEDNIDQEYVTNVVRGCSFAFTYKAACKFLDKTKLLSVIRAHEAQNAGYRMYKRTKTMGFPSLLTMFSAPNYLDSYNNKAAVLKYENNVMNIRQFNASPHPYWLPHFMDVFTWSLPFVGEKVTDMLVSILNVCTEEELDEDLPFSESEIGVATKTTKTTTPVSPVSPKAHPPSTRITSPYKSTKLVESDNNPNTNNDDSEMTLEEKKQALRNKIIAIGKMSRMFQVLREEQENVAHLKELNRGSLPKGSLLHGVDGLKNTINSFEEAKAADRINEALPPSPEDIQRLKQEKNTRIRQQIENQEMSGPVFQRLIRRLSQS

Exodeoxyribonuclease V = Exodeoxyribonuclease V (Escherichia coli (strain K12), UniProt P04993+P07648+P08394); assay: RecBCD inhibition via phage-restricted bacterial growth – absorbance, V66 E. coli, mutant T4 phage, counter-screen for AddAB inhibitor project, dose response (AID 492957); type: functional, cell-based, Escherichia coli str. K-12 substr. MG1655
[8] = Counterscreen for AddAB inhibitors: absorbance-based bacterial cell-based high throughput dose response assay for inhibitors of bacterial viability. [Related pubchem assays (depositor defined):AID435030, AID449728, AID449731, AID488942, AID488955, AID488956]; type: functional
[9] = biological target: ATP-dependent molecular chaperone HSP82 (Candida albicans (strain WO-1) (Yeast), UniProt C4YTQ8); assay: steroid-induced GRE reporter decrease in yeast – S. cerevisiae, luminescence, Hsp90 inhibitor project, dose response (AID 2400); type: functional, cell-based;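 further: beta-galactosidase luminescence from glucocorticoid response element reporter as proxy for Hsp90 function; inhibitor potency where signal loss means Hsp90 inhibition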
[10] = biological target: T2, High affinity choline transporter 1 (Homo sapiens, UniProt Q9GZV3); assay: human choline transporter blockers, potency – cell-based, 5-point CRC, membrane potential dye, dose response (AID 504840); type: functional
T2 sequence (Q9GZV3 whole entry): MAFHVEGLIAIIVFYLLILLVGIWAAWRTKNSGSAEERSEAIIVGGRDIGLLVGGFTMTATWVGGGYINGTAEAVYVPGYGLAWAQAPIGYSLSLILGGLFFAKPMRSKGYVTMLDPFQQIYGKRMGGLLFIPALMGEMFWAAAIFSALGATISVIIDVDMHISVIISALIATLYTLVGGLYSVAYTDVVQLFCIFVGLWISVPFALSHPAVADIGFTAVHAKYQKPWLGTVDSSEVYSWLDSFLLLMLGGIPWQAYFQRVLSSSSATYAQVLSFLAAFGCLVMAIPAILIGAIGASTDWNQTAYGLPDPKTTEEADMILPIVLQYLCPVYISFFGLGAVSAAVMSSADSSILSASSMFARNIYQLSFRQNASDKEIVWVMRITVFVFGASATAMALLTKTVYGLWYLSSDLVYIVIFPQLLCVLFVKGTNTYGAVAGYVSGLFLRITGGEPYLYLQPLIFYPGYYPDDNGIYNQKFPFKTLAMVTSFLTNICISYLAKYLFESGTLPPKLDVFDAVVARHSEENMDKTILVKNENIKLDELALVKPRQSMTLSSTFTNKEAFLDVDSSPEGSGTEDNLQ

Chain of Exodeoxyribonuclease V (P04993 whole entry): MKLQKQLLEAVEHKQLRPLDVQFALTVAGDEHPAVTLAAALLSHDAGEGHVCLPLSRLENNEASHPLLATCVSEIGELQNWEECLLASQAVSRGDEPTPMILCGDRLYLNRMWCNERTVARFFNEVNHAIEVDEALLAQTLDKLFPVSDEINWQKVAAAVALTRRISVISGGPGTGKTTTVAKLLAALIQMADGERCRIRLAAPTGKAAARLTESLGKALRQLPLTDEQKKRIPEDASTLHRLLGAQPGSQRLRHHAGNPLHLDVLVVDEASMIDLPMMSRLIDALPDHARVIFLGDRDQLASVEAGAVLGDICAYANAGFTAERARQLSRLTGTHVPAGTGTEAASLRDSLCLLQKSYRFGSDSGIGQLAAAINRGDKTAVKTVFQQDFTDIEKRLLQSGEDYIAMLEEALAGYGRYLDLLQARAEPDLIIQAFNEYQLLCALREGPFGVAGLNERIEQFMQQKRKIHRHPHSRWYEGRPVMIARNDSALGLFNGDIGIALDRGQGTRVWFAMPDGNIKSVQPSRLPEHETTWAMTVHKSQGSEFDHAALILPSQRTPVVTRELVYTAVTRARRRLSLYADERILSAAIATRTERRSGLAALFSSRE
Chain of Exodeoxyribonuclease V (P07648 whole entry): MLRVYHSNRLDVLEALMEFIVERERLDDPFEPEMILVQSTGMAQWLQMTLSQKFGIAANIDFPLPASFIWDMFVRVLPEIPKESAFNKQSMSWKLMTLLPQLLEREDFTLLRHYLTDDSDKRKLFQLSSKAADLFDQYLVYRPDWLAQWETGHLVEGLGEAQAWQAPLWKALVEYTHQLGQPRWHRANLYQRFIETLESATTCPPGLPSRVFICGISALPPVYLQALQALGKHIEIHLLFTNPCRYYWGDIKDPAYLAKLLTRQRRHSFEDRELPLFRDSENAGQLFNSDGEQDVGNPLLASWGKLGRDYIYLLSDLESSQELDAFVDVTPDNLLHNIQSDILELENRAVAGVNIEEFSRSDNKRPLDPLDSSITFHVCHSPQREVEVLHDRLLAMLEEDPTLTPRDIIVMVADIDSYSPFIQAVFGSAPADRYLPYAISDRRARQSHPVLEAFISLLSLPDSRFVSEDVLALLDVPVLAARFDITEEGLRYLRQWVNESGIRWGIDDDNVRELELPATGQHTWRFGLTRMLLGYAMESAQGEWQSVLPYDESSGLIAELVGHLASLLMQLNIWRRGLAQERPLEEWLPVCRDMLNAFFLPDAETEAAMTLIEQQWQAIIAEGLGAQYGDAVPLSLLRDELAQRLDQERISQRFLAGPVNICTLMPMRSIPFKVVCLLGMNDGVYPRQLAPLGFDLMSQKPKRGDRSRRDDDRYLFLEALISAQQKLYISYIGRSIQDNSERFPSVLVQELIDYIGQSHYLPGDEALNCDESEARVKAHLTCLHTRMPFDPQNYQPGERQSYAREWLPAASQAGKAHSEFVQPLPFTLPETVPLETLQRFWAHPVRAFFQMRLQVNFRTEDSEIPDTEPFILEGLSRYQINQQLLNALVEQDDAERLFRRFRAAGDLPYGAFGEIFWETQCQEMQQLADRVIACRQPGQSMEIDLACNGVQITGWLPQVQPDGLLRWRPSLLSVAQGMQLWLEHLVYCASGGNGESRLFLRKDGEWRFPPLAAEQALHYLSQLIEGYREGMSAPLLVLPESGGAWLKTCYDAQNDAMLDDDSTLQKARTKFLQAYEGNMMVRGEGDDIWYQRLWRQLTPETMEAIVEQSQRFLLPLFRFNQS
Chain of Exodeoxyribonuclease V (P08394 whole entry): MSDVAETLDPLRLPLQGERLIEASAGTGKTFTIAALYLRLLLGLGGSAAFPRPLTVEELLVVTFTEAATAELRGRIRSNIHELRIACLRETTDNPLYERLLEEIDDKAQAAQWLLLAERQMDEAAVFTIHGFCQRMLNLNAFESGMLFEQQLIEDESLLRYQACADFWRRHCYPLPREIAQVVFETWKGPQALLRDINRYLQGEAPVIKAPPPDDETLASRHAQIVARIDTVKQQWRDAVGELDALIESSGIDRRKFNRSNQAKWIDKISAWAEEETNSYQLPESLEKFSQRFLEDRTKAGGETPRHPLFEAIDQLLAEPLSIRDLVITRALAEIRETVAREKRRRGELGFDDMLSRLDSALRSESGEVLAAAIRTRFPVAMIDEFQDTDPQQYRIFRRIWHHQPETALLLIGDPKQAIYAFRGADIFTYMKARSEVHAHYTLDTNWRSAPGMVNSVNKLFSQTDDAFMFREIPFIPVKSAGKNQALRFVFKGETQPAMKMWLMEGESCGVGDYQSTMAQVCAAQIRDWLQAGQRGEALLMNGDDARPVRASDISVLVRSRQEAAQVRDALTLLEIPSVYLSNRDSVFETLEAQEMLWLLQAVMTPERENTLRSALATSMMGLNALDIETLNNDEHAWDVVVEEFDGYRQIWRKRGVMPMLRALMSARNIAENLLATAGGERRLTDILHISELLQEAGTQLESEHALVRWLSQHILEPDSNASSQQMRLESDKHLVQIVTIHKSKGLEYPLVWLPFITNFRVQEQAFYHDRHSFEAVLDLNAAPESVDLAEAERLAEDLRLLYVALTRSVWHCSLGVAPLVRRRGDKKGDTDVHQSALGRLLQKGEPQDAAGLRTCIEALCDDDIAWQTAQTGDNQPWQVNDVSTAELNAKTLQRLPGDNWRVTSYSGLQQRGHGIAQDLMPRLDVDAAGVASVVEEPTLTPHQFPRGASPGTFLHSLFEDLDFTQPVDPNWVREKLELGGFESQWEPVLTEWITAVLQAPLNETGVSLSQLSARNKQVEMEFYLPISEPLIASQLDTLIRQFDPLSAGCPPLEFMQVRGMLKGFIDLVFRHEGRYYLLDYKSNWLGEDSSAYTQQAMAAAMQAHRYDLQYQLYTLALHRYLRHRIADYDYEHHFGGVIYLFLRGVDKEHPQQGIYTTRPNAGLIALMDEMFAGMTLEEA
Chain of Nuclear receptor ROR-alpha (P35398 whole entry): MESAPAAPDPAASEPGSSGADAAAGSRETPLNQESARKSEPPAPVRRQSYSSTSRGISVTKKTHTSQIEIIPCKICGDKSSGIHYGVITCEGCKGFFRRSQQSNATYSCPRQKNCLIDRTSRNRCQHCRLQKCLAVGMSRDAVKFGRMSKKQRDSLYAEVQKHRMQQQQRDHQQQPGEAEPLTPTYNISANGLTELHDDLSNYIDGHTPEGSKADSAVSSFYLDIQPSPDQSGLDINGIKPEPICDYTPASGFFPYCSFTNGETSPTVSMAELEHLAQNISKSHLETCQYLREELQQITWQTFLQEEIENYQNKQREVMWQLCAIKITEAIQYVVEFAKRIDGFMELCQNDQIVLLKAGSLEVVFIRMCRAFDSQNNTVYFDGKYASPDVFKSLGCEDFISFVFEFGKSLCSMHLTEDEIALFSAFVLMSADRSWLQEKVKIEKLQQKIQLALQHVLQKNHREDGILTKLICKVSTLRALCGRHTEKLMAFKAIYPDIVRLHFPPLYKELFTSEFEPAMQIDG
Chain of Nuclear receptor ROR-gamma (P51449 whole entry): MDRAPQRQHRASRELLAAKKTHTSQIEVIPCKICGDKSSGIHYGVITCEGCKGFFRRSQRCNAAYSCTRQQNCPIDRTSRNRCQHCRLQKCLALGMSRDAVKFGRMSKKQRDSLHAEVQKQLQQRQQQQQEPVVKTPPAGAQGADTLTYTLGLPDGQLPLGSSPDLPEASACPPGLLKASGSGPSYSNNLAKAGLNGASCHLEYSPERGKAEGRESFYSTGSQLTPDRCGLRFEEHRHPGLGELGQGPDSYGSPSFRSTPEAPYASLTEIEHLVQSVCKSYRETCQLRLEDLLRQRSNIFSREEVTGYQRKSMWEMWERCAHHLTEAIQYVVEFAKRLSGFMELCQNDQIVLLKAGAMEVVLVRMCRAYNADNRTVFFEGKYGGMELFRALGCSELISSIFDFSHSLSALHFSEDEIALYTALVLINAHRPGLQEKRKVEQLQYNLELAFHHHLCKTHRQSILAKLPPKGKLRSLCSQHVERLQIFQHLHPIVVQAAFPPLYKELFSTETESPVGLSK
Chain of ATP-dependent molecular chaperone HSP82 (C4YTQ8 whole entry): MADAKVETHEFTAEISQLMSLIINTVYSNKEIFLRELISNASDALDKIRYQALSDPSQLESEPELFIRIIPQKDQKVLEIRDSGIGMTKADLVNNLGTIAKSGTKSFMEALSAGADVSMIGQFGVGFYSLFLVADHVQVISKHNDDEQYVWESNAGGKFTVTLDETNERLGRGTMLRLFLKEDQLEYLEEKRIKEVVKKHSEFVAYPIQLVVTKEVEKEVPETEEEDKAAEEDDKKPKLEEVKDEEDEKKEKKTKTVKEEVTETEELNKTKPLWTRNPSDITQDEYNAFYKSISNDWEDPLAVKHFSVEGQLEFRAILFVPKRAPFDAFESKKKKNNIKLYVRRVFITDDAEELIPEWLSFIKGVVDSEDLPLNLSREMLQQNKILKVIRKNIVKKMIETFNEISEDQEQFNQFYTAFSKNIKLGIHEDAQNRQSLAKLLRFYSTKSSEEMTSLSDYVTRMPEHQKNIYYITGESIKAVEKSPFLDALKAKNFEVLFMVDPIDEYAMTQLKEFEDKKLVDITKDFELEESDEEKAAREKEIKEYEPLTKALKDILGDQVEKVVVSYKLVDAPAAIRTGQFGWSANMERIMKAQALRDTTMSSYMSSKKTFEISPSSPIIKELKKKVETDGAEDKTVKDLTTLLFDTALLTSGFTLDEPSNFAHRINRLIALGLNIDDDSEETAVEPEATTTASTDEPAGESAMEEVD

O=S(=O)(Nc1ccc(C(O)(C(F)(F)F)C(F)(F)F)cc1)c1cccc2cccnc12
IC50 [1]: > 20 µM (inactive)
IC50 [2]: > 20 µM (inactive)

Cc1ccc(-c2nc3c(Cl)cc(Cl)cc3c(=O)n2O)cc1
EC50 [3]: 2.19 µM (active)
EC50 [4]: 31 µM (inconclusive)
EC50 (Streptococcus): 2.15 µM (active)
AC50 [5]: 16.2 µM (active)
EC50 [6]: 891 nM (active)
EC50 [7]: > 180 µM (inactive)
IC50 (Exodeoxyribonuclease V): > 119 µM (inactive)
IC50 [8]: > 119 µM (inactive)
EC50 [9]: 3.24 µM (active)
IC50 [10]: 15.1 µM (active)
